Assay results published in ChEMBL document CHEMBL4196109, “Chemical Strategies for Half-Life Extension of Biopharmaceuticals: Lipidation and Its Alternatives” (ACS Med Chem Lett, 2018).

Columns and labels:
[1] = test system: Homo sapiens; experiment: Half life in sc dosed human; format: ADME, organism-based; details: in vivo
[2] = target: Albumin (Homo sapiens, UniProt P02768); experiment: Binding affinity to human albumin; format: ADME; details: isolated protein
Chain of Albumin (P02768 whole entry): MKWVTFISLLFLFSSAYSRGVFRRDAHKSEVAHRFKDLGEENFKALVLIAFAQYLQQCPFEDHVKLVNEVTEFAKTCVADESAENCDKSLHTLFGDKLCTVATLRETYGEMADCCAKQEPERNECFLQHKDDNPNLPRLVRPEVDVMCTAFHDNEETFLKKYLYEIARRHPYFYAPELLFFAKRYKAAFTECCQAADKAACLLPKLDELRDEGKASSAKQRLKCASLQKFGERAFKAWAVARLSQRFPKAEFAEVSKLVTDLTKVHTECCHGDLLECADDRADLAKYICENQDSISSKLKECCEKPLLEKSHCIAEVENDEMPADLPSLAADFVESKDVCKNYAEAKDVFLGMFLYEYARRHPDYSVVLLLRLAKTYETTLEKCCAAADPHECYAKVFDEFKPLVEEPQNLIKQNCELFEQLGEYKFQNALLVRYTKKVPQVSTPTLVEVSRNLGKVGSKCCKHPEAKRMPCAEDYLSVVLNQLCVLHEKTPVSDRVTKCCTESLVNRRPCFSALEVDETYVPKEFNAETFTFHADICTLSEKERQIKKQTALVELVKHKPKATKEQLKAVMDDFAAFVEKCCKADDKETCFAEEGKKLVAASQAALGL

How did the t1/2 [1] turn out when SEMAGLUTIDE was run?
Its t1/2 is 1 weeks.

Which Activity [2] does the source give for `NC(=O)[C@H](CCCCNC(=O)CSC[C@H](N)C(=O)O)NC(=O)COCCOCCNC(=O)CC[C@H](NC(=O)CC[C@H](NC(=O)COCCOCCNC(=O)CCCS(=O)(=O)NC(=O)CCCCCCCCCCCCCCc1nn[nH]n1)C(=O)O)C(=O)O` here?
The Activity was > 99%.
